These results are taken from patent publication US12448382B2, “Heterocyclic compounds for mediating tyrosine kinase 2 activity” (GUANGZHOU INNOCARE PHARMA TECH CO., LTD., priority 2019, dated 2025).

Where two headings read alike, the source gives them in different places.

In test [1] the target is T1, human recombinant JAK2 protein (Homo sapiens, UniProt O60674).
T1 construct: purchased Carna Biosciences 08-045
The test is described as follows: JAK2 Inhibition Assay (HTRF kinase assay). The format is biochemical. Conditions: human recombinant JAK2, 2.5 μM ATP substrate solution. In short, it runs like this:
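Recombinant human JAK2 was preincubated 15 min at room temperature with compound in buffer containing 5 mM MgCl2, 1 mM DTT and 0.01% Brij35. Substrate solution (2.5 μM ATP, 0.25 μM biotinylated TK substrate) was then added for 30 min. Phosphorylation was detected by HTRF (665/620 nm ratio; no-enzyme = 100% inhibition), and IC50 was fitted from an 8-point, 4-fold series.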
Background: In TR-FRET formats the signal depends on donor and acceptor labels being close together.

In test [2] the target is T2, human recombinant TYK2 protein (Homo sapiens, UniProt P29597).
T2 construct: purchased Carna Biosciences 08-147
T2 sequence (P29597 871-1187 limits assumed): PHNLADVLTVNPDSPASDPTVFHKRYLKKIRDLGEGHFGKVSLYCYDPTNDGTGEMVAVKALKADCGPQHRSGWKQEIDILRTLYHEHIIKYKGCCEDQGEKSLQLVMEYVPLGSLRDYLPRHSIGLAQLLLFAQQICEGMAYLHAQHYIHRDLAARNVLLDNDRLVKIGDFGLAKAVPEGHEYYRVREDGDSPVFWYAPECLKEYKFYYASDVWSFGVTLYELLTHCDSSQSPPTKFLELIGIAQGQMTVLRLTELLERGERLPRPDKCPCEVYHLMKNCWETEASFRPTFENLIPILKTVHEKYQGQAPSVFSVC
The test is described as follows: TYK2 Inhibition Assay (HTRF kinase assay). Particulars: human recombinant TYK2, 11.25 μM ATP substrate solution. The test is classed as biochemical. The method, boiled down: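 Recombinant human TYK2 was pre-incubated 15 min at room temperature with compound, then reacted for 40 min with biotinylated tyrosine-kinase substrate and ATP (substrate solution 11.25 μM ATP, 0.5 μM substrate; 5 mM MgCl2, 0.01% Brij35). Phosphorylation was read by HTRF 665/620 ratio, normalised to no-enzyme and no-compound controls, and IC50 was fitted from 8 4-fold dilutions.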

The subject of test [3] is IL-12-induced IFN-γ secretion in NK92 cells. The test is described as follows: Inhibition of IL-12-induced IFN-γ Secretion in NK92 Cells (ELISA). The format is cell-based, human. Particulars: 24 hours incubation, 8 concentration points, read-out: IC50 (NK92_IL12/IFNγ). The method, boiled down:
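NK92 cells (100,000/well, IL-2-free medium) rested overnight, then treated with compound plus IL-12 for 24 h at 37 °C. Secreted IFN-γ measured in supernatant by ELISA. Inhibition normalized to unstimulated and IL-12/0.2% DMSO controls; IC50 fitted from 8 concentrations.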

T1 sequence (O60674 826-1132 limits assumed): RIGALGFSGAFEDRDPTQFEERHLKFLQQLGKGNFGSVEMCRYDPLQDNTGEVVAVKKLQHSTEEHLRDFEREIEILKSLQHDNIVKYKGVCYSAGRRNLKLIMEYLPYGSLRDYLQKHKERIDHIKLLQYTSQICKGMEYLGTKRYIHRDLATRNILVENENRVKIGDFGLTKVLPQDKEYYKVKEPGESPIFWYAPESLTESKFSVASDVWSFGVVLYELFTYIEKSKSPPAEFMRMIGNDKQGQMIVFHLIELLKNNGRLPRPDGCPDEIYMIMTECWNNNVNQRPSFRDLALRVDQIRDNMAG

For the molecule “4-(3aR,6aS)-5-(isoxazol-5-ylmethyl)-3a,6a-dimetylhexahydropyrrolo[3,4-c]pyrrol-2(1H)-yl)-5-methyl-N-(1-methyl-1H-pyrazol-4-yl)pyrimidin-2-amine [Compound 67]”, the IC50 in test [1] is 2.2 nM; in test [2], 6 nM; in test [3], 291 nM.
As for `Cn1cc(Nc2nccc(N3C[C@@H]4CN(Cc5ccno5)C[C@]4(C)C3)n2)cn1` (relative stereo) [Compound 69, cis-4-(5-(isoxazol-5-ylmethyl)-3a-methylhexahydropyrrolo[3,4-c]pyrrol-2(1H)-yl)-N-(1-methyl-1H-pyrazol-4-yl)pyrimidin-2-amine], the IC50 in test [1] was 156 nM; in test [2] it was 98 nM; in test [3] (Homo sapiens), 7060 nM.
Take `Cn1cc(Nc2ncc(Cl)c(N3C[C@H]4CN(C(=O)CC#N)C[C@H]4C3)n2)cn1` [Compound 26, 3-((3aR,6aS)-5-(5-chloro-2-((1-methyl-H-pyrazol-4-yl)amino)pyrimidin-4-yl)hexahydropyrrolo[3,4-c]pyrrol-2(1H)-yl)-3-oxopropanenitrile]: the results for the IC50 in test [1], in test [2] and in test [3] (Homo sapiens) were 10 nM, 6.1 nM and 652 nM, respectively.
On to `Cc1cnc(Nc2cnn(C)c2)nc1N1C[C@@H]2CN(Cc3ccno3)C[C@]2(C)C1` (racemic) [Compound 73, cis-4-(5-(isoxazol-5-ylmethyl)-3a-methylhexahydropyrrolo[3,4-c]pyrrol-2(1H)-yl)-5-methyl-N-(1-methyl-1H-pyrazol-4-yl)pyrimidin-2-amine], for which the IC50 in test [1] worked out at 6 nM; in test [2], 3.3 nM; in test [3] (Homo sapiens) it was 278 nM.
As to `Cn1cc(Nc2ncc(Cl)c(N3C[C@]4(C)CN(c5ccccn5)C[C@]4(C)C3)n2)cn1` [Compound 54, 5-chloro-4-((3aR,6aS)-3a,6a-dimethyl-5-(pyridin-2-yl)hexahydropyrrolo[3,4-c]pyrrol-2(1H)-yl)-N-(1-methyl-1H-pyrazol-4-yl)pyrimidin-2-amine], the IC50 in test [1] is 0.9 nM; in test [2], 0.2 nM; in test [3] (Homo sapiens), 934 nM.
In the case of `Cn1cc(Nc2ncc(Cl)c(N3C[C@@H]4CN(C(=O)CC(F)(F)F)C[C@]4(C)C3)n2)cn1` (racemic) [Compound 68, cis-1-(5-(5-chloro-2((1-methyl-1H-pyrazol-4-yl)amino)pyrimidin-4-yl)-3a-methylhexahydropyrrolo[3,4-c]pyrrol-2(1H)-yl)-3,3,3-trifluoropropan-1-one], the IC50 in test [1] is 31 nM; in test [2], 1.4 nM; in test [3] (Homo sapiens) it was 330 nM.
With `Cn1cc(Nc2ncc(F)c(N3C[C@]4(C)CN(CC(F)F)C[C@]4(C)C3)n2)cn1` [Compound 14, 4-((3aR,6aS)-5-(2,2-difluoroethyl)-3a,6a-dimethylhexahydropyrrolo[3,4-c]pyrrol-2(1H)-yl)-5-fluoro-N-(1-methyl-1H-pyrazol-4-yl)pyrimidin-2-amine], the IC50 is 68 nM in test [1], 14 nM in test [2] and 1320 nM in test [3] (Homo sapiens).
For the molecule `C[C@]12CN(C(=O)CC#N)C[C@H]1CN(c1nc(Nc3cn[nH]c3)ncc1Cl)C2` [Compound 98, 3-((3aS,6aR)-5-(2-((1H-pyrazol-4-yl)amino)-5-chloropyrimidin-4-yl)-3a-methylhexahydropyrrolo[3,4-c]pyrrol-2(1H)-yl)-3-oxopropanenitrile], the IC50 in test [1] turned out to be 0.7 nM; in test [2], 0.1 nM; in test [3] (Homo sapiens) it was 516 nM.
Turning to `Cn1cc(Nc2ncc(Cl)c(N3C[C@@H]4CN(C(=O)CC#N)C[C@]4(C)C3)n2)cn1` (racemic) [Compound 63, cis-3-(5-(5-chloro-2-((1-methyl-IH-pyrazol-4-yl)amino)pyrimidin-4-yl)-3a-methylhexahydropyrrolo[3,4-c]pyrrol-2(1H)-yl)-3-oxopropanenitrile], the IC50 in test [1] was found to be 1.2 nM; in test [2], 0.3 nM; in test [3] (Homo sapiens), 267 nM.
In the case of `C[C@@]12CN(C(=O)C3CC3)C[C@]1(C)CN(c1nc(Nc3ccc(C(=O)N4CCOCC4)nc3)ncc1Cl)C2` [Compound 53, ((3aR,6aS)-5-(5-chloro-2-((6-(morpholine-4-carbonyl)pyridin-3-yl)amino)pyrimidin-4-yl)-3a,6a-dimethylhexahydropyrrolo[3,4-c]pyrrol-2(1H)-yl)(cyclopropyl)methanone], the figures for the IC50 in test [1], in test [2] and in test [3] (Homo sapiens) were 3.8 nM, 3.2 nM and 918 nM, respectively.
In the case of `Cn1cc(Nc2ncc(Cl)c(N3C[C@]4(C)CN(C(=O)CC(F)F)C[C@]4(C)C3)n2)cn1` [Compound 52], the values for the IC50 in test [1], in test [2] and in test [3] (Homo sapiens) were 1.8 nM, 0.9 nM and 289 nM, respectively.
For `CCC(=O)N1C[C@@]2(C)CN(c3nc(Nc4cnn(C)c4)ncc3Cl)C[C@@]2(C)C1` [Compound 36, 1-((3aR.,6aS)-5-(5-chloro-2-((1-methyl-1H-pyrazol-4-yl)amino)pyrimidin-4-yl)-3a,6a-dimethylhexahydropyrrolo[3,4-c]pyrrol-2(1H)-yl)propan-1-one], the IC50 in test [1] was found to be 4.1 nM; in test [2], 1.8 nM; in test [3] (Homo sapiens), 592 nM.
For the molecule `Cn1cc(Nc2ncc(Cl)c(N3C[C@@H]4CN(C(=O)c5ccno5)C[C@]4(C)C3)n2)cn1` (racemic) [Compound 64, cis-(5-(5-chloro-2-((1-methyl-1H-pyrazol-4-yl)amino)pyrimidin-4-yl)-3a-methylhexahydropyrrolo[3,4-c]pyrrol-2(1H)-yl)(isoxazol-5-yl)methanone], the IC50 worked out at 3.3 nM in test [1], 0.5 nM in test [2] and 162 nM in test [3] (Homo sapiens).
